Measured values reported in patent US20160194718A1, “Compositions and Methods for Identification, Assessment, Prevention, and Treatment of Cancer Using Histone H3K27ME3 Biomarkers and Modulators” (DANA-FARBER CANCER INSTITUTE, INC., priority 2013, published 2016).

Assays:
H3K27me3 = experiment: Western blotting of B cell colonies for H3K27me3; format: cell-based, mouse
Procedure: Western blotting was performed as described in Yoda et al. (2010) Proc. Natl. Acad. Sci. U.S.A. 107:252-257. Image J (available on the World Wide Web at imagej.nih.gov/ij) was used for quantitation of immunoblots, with band intensity normalized to total H3.
(§1) GSK-J4 (KDM6A/UTX and KDM6B/JMJD3 inhibitor, catalog #M60063-2) (Kruidenier et al. (2012) Nature 488:404-408) and GSK-126 (EZH2 inhibitor, catalog #M60071-2) (McCabe et al. (2012) Nature 492:108-112) were purchased from Xcessbio. For methylcellulose experiments, at each passage DMSO, GSK-J4, or GSK-126 were added to cultures a final concentration of 1 μM. DS-ALLs (deidentified specimens obtained with informed consent under DFCI IRB protocol 05-001) were treated In vitro in quadruplicate with GSK-J4 at two-fold dilutions from 40 nM to 10 μM in RPMI with 20% calf serum supplemented with 10 ng/mL IL3, IL7, SCF, FLT3 ligand, and 50 μM beta-mercaptoethanol. After 3 days, viability was measured using CellTiter-Glo reagent and normalized to DMSO control (Promega).

wild-type B cells = experiment: Methylcellulose B cell colony forming / repassaging assay with drug; format: cell-based, mouse
Procedure: Whole bone marrow was harvested from 6-8-week-old mice, and red blood cells were lysed. Cells were plated in B cell (Methocult M3630, Stem Cell Technologies) or myeloid (Methocult M3434) methylcelluose media in gridded 35 mm dishes. Myeloid colonies were plated at 2×10^4 cells/ml per passage. B cell colonies were plated at 2×10^5 cells/ml in passage 1, and at 5×10^4 cells/ml per subsequent passage. Colonies were counted at 7 days, and colonies were then pooled and replated in the same manner.
as §1

[1] = test system: human primary macrophages; details: 10 μM; cited from earlier work
DS-ALLs = DS-ALLs treated in vitro with GSK-J4, viability by CellTiter-Glo; format: cell-based; details: Homo sapiens, 72 h; five DS-ALLs, 3 days, two-fold dilutions 40 nM to 10 μM, normalized to DMSO; read-out: IC50 values for GSK-J4 across a panel of DS-ALLs
Procedure: as §1

Ts1Rhr B cells = experiment: Methylcellulose B cell colony forming / repassaging assay with drug; format: cell-based, mouse; details: 1 μM added at each passage
Procedure: as §1, with “Whole bone marrow was harvested from 6-8-week-old mice, and red blood cells were lysed. Cells were plated in B cell (Methocult M3630, Stem Cell Technologies) or myeloid (Methocult M3434) methylcelluose media in gridded 35 mm dishes. Myeloid colonies were plated at 2×10^4 cells/ml per passage. B cell colonies were plated at 2×10^5 cells/ml in passage 1, and at 5×10^4 cells/ml per subsequent passage. Colonies were counted at 7 days, and colonies were then pooled and replated in the same manner. GSK-J4 (KDM6A/UTX” for “GSK-J4 (KDM6A/UTX”

[2] = 1 μM, passage 2 colonies after 14 total days in culture

SMILES | H3K27me3 in wild-type B cells (H3K27me3; [2]) | loss of H3K27me3 after withdrawal of compound (H3K27me3; wild-type cells, one passage (7 days) after removal) | indefinite repassaging in wild-type B cells (wild-type B cells; 1 μM added at each passage) | indefinite repassaging after withdrawal of compound (wild-type B cells; wild-type cells, withdrawal at passage 5) | lipopolysaccharide-induced proinflammatory cytokine production [1] | H3K27me3 in Ts1Rhr B cells (H3K27me3; [2]) | IC50 (DS-ALLs) [nM] | indefinite repassaging (Ts1Rhr B cells) | colony-forming activity (Ts1Rhr B cells; vs DMSO)
CC[C@H](C)n1cc(C)c2c(C(=O)NCc3c(C)cc(C)[nH]c3=O)cc(-c3ccc(N4CCNCC4)nc3)cc21 [GSK-126, (S)-1-(sec-butyl)-N-((4,6-dimethyl-2-oxo-1,2-dihydropyridin-3-yl)methyl)-3-methyl-6-(6-(piperazin-1-yl)pyridin-3-yl)-1H-indole-4-carboxamide] | decreased H3K27me3 | reversible | sufficient to confer indefinite repassaging | reversible | – | – | – | – | –
CCOC(=O)CCNc1cc(N2CCc3ccccc3CC2)nc(-c2ccccn2)n1 [GSK-J4, ethyl 3-((6-(4,5-dihydro-1H-benzo[d]azepin-3(2H)-yl)-2-(pyridin-2-yl)pyrimidin-4-yl)amino)propanoate] | – | – | – | – | reduces | increased H3K27me3 | 1400 to 2500 | blocked indefinite repassaging | decreased colony-forming activity
